Measured values published in article PMC11470957, “Principles of paralog-specific targeted protein degradation engaging the C-degron E3 KLHDC2” (Nature Communications, 2024).
Where “and” joins values, the source holds several entries; their conditions need not be identical. Equal entries are not always repeated.

What was measured:
BRD4 = BRD4 (Homo sapiens, UniProt O60885); assay: Western blot of BRD4 levels after cellular dosing
[1] = test system: KLHDC2, KLHDC3, KLHDC10, KLHDC1 E3 ligases; details: ligand alone; Fig S5b, c
BRD3 = BRD3 (Homo sapiens, UniProt Q15059); assay: Western blot of BRD3 levels after cellular dosing
[2] = test system: BD2 domain from BRD2, BRD3, or BRD4 / neddylated CRL2^KLHDC2; assay: Pulse-chase PROTAC-dependent ubiquitylation of BRD BD2 domains by neddylated CRL2^KLHDC2; details: neddylated CRL2^KLHDC2 not subject to autoinhibition; Fig 3e
[3] = test system: BRD proteins in U2OS KO/rescue lysate; assay: Degradation in non-denaturing lysates of U2OS KO/rescue cells; details: non-denaturing U2OS KO/rescue lysate 4mg/ml, 10 µM, 30° C
[4] = Fig S6b, MDA-MB468 Cells, 10 uM

BRD3, sequence (Q15059 whole entry, the tested form may be a part): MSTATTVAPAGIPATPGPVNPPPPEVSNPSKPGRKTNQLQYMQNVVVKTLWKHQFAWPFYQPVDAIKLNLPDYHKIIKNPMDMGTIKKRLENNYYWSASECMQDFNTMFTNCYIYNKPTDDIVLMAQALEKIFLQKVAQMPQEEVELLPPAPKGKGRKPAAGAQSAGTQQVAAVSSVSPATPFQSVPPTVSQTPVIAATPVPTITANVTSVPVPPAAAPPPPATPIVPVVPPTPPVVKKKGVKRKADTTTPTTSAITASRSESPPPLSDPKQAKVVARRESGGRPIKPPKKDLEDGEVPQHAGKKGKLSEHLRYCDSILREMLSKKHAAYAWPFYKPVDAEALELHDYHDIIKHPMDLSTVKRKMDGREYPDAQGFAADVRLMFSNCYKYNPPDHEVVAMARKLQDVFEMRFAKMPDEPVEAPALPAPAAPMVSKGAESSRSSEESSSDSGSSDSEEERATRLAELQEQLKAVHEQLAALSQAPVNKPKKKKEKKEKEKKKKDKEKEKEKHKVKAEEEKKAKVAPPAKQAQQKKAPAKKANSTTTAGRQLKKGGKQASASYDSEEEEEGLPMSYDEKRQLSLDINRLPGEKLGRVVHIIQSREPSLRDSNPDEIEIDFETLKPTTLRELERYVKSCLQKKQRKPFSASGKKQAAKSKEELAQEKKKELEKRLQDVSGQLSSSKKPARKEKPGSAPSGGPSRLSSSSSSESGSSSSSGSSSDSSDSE

**Q.** Which results are given for `Cc1sc2c(c1C)C(c1ccc(Cl)cc1)=N[C@@H](CC(=O)N1CCN(CCOc3cccc4ccc(-c5nc(CC(=O)NCC(=O)O)cs5)cc34)CC1)c1nnc(C)n1-2` [SJ46421]?
**A.** BRD4 level, Western blot quantification (DMSO = 100) (BRD4; Fig 6b, KO/Rescue, 5 uM): 89.649 and 113.548; BRD4 level, Western blot quantification (DMSO = 100) (BRD4; Fig 6b, U2OS, 5 uM): 119.505 and 104.107; BRD4 level, Western blot quantification (DMSO = 100) (BRD4; Fig S6a, 293T cells, 2.5 uM): 98.5503 and 107.435; BRD4 level, Western blot quantification (DMSO = 100) (BRD4; Fig S6a, 293T cells, 5 uM): 86.1267 and 99.7257; BRD4 level, Western blot quantification (DMSO = 100) (BRD4; [4]): 94.0762 and 99.1924; inhibition of substrate ubiquitylation by Kelch family E3 ligases other than KLHDC2 [1]: largely inactive; BRD3 level, Western blot quantification (DMSO = 100) (BRD3; Fig 6b, KO/Rescue, 5 uM): 107.446 and 99.4453; BRD3 level, Western blot quantification (DMSO = 100) (BRD3; Fig 6b, U2OS, 5 uM): 111.974 and 117.271; BRD3 level, Western blot quantification (DMSO = 100) (BRD3; Fig S6a, 293T cells, 2.5 uM): 78.3969 and 86.4266; BRD3 level, Western blot quantification (DMSO = 100) (BRD3; Fig S6a, 293T cells, 5 uM): 73.4789 and 84.2355; BRD3 level, Western blot quantification (DMSO = 100) (BRD3; [4]): 61.0904 and 82.4759; BRD degradation activity in U2OS cells (BRD3; wild-type U2OS, 24 h dose, Fig 6b): inactive; polyubiquitylation of the BD2 domain from BRD2, BRD3, or BRD4 [2]: able to promote polyubiquitylation; degrader dependent decrease in BRD protein levels in lysate [3]: did not observe a degrader dependent decrease
